For 23 compounds, IC50 results are on record in US20240317760A1, “TRK KINASE INHIBITOR COMPOUND AND USE THEREOF” (HENAN MEDINNO PHARMACEUTICAL TECHNOLOGY CO., LTD., priority 2021, published 2024).

Molecules are shown by their SMILES.

By IC50 is commonly meant the concentration needed to halve the response being measured. A higher IC50 goes with lower potency.

What all share (assay type): biochemical
For experiment [1], the target named is T1, TRKB (Homo sapiens, UniProt Q16620).
T1 construct: purchased SignalChem N17-11G
T1 sequence (Q16620 32-822): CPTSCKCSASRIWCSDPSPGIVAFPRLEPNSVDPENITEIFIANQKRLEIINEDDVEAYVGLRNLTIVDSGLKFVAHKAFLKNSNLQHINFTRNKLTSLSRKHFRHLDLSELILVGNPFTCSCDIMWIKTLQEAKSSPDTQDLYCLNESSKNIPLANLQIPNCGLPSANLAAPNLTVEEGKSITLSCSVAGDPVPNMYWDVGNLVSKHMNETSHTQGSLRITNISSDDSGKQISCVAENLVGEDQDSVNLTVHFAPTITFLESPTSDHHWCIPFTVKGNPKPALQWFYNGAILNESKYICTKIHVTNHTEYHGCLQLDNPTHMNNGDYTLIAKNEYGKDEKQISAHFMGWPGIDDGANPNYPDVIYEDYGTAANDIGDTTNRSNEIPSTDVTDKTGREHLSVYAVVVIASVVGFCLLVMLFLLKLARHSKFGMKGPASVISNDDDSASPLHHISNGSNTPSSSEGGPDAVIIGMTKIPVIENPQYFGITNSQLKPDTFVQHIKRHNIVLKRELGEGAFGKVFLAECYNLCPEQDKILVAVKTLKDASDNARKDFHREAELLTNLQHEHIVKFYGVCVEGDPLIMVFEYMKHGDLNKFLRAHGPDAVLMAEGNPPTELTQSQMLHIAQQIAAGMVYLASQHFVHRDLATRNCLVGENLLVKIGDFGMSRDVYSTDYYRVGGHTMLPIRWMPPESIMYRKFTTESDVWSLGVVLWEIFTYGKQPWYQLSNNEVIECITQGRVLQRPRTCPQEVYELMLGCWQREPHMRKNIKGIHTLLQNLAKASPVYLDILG
Description: Determination of inhibitory activity against TRKB kinase (ADP-Glo Kinase Assay). The note with it: ATP 20 μM, Poly (4:1 Glu, Tyr) Peptide 0.03 mg/ml. How it is done: (§1) Assay: Determination of Inhibitory Activity Against TRKA/B/C Kinases
(§2) 1× volume of 5× kinase reaction buffer and 4× volume of water; 5 mM MgCl2; and 1 mM DTT.
(§3) • 1). Gradiently diluting a compound 4-fold in a dilution plate with DMSO, with a starting compound concentration of 1000 nM. • 2). Diluting the compound 50-fold into 1× kinase reaction buffer and shaking it on a shaker for 20 minutes. • 3). Formulating 2× kinase with 1× of enzyme reaction buffer. • 4). Adding 2 μl kinase (formulated in step 3) to each well of the reaction plate. • 5). Adding 1 μl of the compound diluted in buffer to each well, sealing the plate with a sealing membrane and centrifuging the plate at 1000 g for 30 seconds and leaving it at room temperature for 10 minutes. • 6). Formulating 4×ATP & sub mixture with 1× enzyme reaction buffer and adding 1 μl of 4×ATP & sub mixture to the reaction plate. • 7). Sealing the plate with a sealing membrane and centrifuging the plate at 1000 g for 30 seconds and allowing it to react at room temperature for 60 minutes. • 8). Transferring 4 μl of ADP-Glo to 384 reaction plate and centrifuging the plate at 1000 rpm/min for 1 min, and then incubating it at 25° C. for 40 min. • 9). Transferring 8 μl of Detection solution to 384 reaction plate and centrifuging the plate at 1000 rpm/min for 1 min and incubating it at 25° C. for 40 min. • 10) Reading the RLU (Relative luminescence unit) signal using a Biotek multifunctional plate reader. The signal intensity was used to characterize the activity degree of kinase.
(§4) The IC50 (half inhibition concentration) of a compound was obtained using the following non-linear fitting equation, wherein data analysis was performed using Graphpad 6.0 software.
(§5) Y=Bottom+(Top−Bottom)/(1+10^((Log IC50−X)*Hill Slope)) • X: log value of compound concentration; and Y: inhibition rate (% inhibition)
(§6) Data were exported from Biotek and analyzed manually. The ratios were converted to inhibition rates and IC50 was calculated by Prism GraphPad 6.0 from the inhibition rates. IC50 was calculated again by the ratios to verify accuracy of the results.
Background: In ADP-Glo the light output rises with the ADP produced.

In experiment [2] the target is T2, TRKA (Homo sapiens, UniProt P04629).
T2 construct: purchased Carna 08-186
T2 sequence (P04629 33-796): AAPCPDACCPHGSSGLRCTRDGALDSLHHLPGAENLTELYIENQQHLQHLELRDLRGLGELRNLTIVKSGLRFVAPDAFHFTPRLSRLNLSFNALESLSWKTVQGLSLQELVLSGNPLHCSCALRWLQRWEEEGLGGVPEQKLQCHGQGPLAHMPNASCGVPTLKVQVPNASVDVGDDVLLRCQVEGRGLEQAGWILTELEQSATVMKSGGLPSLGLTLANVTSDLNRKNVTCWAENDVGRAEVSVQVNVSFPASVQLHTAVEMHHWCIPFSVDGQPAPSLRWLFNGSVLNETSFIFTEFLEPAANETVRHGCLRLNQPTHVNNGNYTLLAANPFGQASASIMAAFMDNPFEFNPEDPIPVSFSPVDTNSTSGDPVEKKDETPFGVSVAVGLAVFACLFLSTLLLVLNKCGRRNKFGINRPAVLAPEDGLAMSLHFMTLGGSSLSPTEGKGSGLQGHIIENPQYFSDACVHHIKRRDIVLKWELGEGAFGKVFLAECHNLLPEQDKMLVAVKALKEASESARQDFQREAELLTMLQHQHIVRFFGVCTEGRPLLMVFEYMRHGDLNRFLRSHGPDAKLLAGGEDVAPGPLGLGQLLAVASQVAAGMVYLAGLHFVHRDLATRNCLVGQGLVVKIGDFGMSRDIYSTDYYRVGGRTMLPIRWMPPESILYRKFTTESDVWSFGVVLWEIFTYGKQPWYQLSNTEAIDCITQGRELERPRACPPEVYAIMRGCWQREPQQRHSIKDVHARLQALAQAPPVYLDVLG
Description: Determination of inhibitory activity against TRKA kinase (ADP-Glo Kinase Assay). To be noted: ATP 5 μM, Poly (4:1 Glu, Tyr) Peptide 0.03 mg/ml. On the procedure:
as §1, §2, §3, §4, §5, §6

For experiment [3], the target named is T3, TRKC (Homo sapiens, UniProt Q16288).
T3 construct: purchased Carna 08-196
T3 sequence (Q16288 32-839): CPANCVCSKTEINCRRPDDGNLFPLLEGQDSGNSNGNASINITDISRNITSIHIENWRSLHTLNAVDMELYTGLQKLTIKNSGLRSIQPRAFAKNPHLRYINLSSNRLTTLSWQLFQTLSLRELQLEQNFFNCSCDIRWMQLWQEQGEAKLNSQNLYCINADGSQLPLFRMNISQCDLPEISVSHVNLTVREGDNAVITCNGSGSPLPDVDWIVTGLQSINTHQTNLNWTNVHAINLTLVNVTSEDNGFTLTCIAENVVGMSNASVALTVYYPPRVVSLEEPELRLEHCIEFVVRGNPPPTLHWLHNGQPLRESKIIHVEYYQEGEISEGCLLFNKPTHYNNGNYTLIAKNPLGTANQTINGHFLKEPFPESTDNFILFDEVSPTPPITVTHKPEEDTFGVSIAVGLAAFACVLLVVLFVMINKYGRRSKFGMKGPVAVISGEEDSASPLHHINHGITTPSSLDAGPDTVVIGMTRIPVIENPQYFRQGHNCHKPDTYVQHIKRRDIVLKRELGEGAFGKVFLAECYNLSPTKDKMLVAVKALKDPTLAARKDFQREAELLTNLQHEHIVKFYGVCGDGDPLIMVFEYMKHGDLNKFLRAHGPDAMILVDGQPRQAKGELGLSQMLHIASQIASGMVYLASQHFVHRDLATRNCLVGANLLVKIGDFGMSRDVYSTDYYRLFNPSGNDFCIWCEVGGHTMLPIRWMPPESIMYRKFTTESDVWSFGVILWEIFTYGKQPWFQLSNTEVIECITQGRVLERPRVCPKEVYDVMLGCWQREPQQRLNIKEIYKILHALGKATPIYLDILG
Description: Determination of inhibitory activity against TRKC kinase (ADP-Glo Kinase Assay). The note with it: ATP 5 μM, Poly (4:1 Glu, Tyr) Peptide 0.03 mg/ml. How it is done:
as §1, §2, §3, §4, §5, §6

For the compound `CC(Nc1ccc2[nH]nc(-c3nc4c([nH]3)CNC4)c2c1)c1cc(F)cc(F)c1` (stereo not drawn) [Example 1], the results for the IC50 in experiment [1], in experiment [2] and in experiment [3] were 2.8 nM, 1.8 nM and 5.5 nM, respectively.

Regarding `Fc1cc(F)cc(CNc2ccc3[nH]nc(-c4nc5c([nH]4)CN(CC4CCNCC4)C5)c3c2)c1` [Example 2, N-(3,5-difluorobenzyl)-3-(5-(piperidin-4-ylmethyl)-1,4,5,6-tetrahydropyrrolo[3,4-d]imidazol-2-yl)-1H-indazol-5-amine], the IC50 in experiment [1] came to 3.4 nM; in experiment [2], 3.5 nM; in experiment [3], 3.3 nM.

In the case of `CS(=O)(=O)N1Cc2nc(-c3n[nH]c4ccc(Cc5cc(F)cc(F)c5)cc34)[nH]c2C1` [Example 3, 5-(3,5-difluorobenzyl)-3-(5-(methylsulfonyl)-1,4,5,6-tetrahydropyrrolo[3,4-d]imidazol-2-yl)-1H-indazole], the IC50 was 5.5 nM in experiment [1], 6.4 nM in experiment [2] and 11 nM in experiment [3].

With `CC(Oc1ccc2[nH]nc(-c3nc4c([nH]3)CN(C3CCN(C)CC3)C4)c2c1)c1cc(F)cc(F)c1` (stereo not drawn) [Example 4, 5-(1-(3,5-difluorophenyl)ethoxy)-3-(5-(1-methylpiperidin-4-yl)-1,4,5,6-tetrahydropyrrolo[3,4-d]imidazol-2-yl)-1H-indazole], the IC50 in experiment [1] amounted to 2.4 nM; in experiment [2] it was 2 nM; in experiment [3], 3.1 nM.

On to `CC(Oc1ccc2[nH]nc(-c3nc4c([nH]3)CN(C(=O)N(C)C)C4)c2c1)c1cc(F)cc(F)c1` (stereo not drawn) [Example 5, 2-(5-(1-(3,5-difluorophenyl)ethoxy)-1H-indazol-3-yl)-N,N-dimethyl-4,6-dihydropyrrolo[3,4-d]imidazole-5(1H) formamide], for which the IC50 in experiment [1] turned out to be 2.1 nM; in experiment [2], 2.3 nM; in experiment [3] it was 3.1 nM.

Consider `CC(Oc1ccc2[nH]nc(-c3nc4c([nH]3)CN(C(=O)OCCN(C)C)C4)c2c1)c1cc(F)cc(F)c1` (stereo not drawn) [Example 6, 2-(Dimethylamino)ethyl 2-(5-(1-(3,5-difluorophenyl)ethoxy)-1H-indazol-3-yl)-4,6-dihydropyrrolo[3,4-d]imidazole-5(1H)-carboxylate], for which the IC50 in experiment [1] was 3.2 nM; in experiment [2] it was 0.97 nM; in experiment [3], 1.4 nM.

As to `CC(Oc1ccc2[nH]nc(-c3nc4c([nH]3)CN(C(=O)C3CCN(C)CC3)C4)c2c1)c1cc(F)cc(F)c1` (stereo not drawn) [Example 7, (2-(5-(1-(3,5-difluorophenyl)ethoxy)-1H-indazol-3-yl)-4,6-dihydropyrrolo[3,4-d]imidazol-5(1H)-yl)(1-methylpiperidin-4-yl)ketone], the IC50 in experiment [1] worked out at 3.4 nM; in experiment [2], 1.4 nM; in experiment [3], 1.3 nM.

As to `CC(Oc1ccc2[nH]nc(-c3nc4c([nH]3)CN(C3CCN(C)CC3)CC4)c2c1)c1cc(F)cc(F)c1` (stereo not drawn) [Example 8, 2-(5-(1-(3,5-difluorophenyl)ethoxy)-1H-indazol-3-yl)-5-(1-methylpiperidin-4-yl)-4,5,6,7-tetrahydro-3H-imidazo[4,5-c]pyridine], the IC50 in experiment [1] worked out at 2.8 nM; in experiment [2], 0.7 nM; in experiment [3], 1.6 nM.

Take `C[C@H](Oc1ccc2[nH]nc(-c3nc4c([nH]3)CN(CC3CCN(C)CC3)C4)c2c1)c1cc(F)cc(F)c1` [Example 9]: the IC50 turned out to be 28 nM in experiment [1], 1.7 nM in experiment [2] and 4.6 nM in experiment [3].

Regarding `CC(Oc1ccc2[nH]nc(-c3nc4c([nH]3)CN(C(=O)OC3CCN(C)CC3)C4)c2c1)c1cc(F)cc(F)c1` (stereo not drawn) [Example 10, 1-Methylpiperidin-4-yl-2-(5-(1-(3,5-difluorophenyl)ethoxy)-1H-indazol-3-yl)-4,6-dihydropyrrolo[3,4-d]imidazole-5(1H)-carboxylate], the IC50 in experiment [1] was 2.5 nM; in experiment [2], 0.77 nM; in experiment [3], 1.3 nM.

Consider `CC(Nc1ccc2[nH]nc(-c3nc4c([nH]3)CN(CC3CCNCC3)C4)c2c1)c1cc(F)cc(F)c1` (stereo not drawn) [Example 11, N-(1-(3,5-difluorophenyl)ethyl)-3-(5-(piperidin-4-ylmethyl)-1,4,5,6-tetrahydropyrrolo[3,4-d]imidazol-2-yl)-1H-indazol-5-amine], for which the results for the IC50 in experiment [1], in experiment [2] and in experiment [3] were 2.2 nM, 1.4 nM and 2.4 nM, respectively.

Take `O=C(C1CC1)N1Cc2nc(-c3n[nH]c4ccc(Cc5cc(F)cc(F)c5)cc34)[nH]c2C1` [Example 13, Cyclopropyl(2-(5-(3,5-difluorobenzyl)-1H-indazol-3-yl)-4,6-dihydropyrrolo [3,4-d]imidazol-5(1H)-yl)ketone]: the IC50 in experiment [1] came to 4.4 nM; in experiment [2], 6.9 nM; in experiment [3], 9.2 nM.

Take `CN1CCC(N2Cc3nc(-c4n[nH]c5ccc(Cc6cc(F)cc(F)c6)cc45)[nH]c3C2)CC1` [Example 14, 5-(3,5-Difluorobenzyl)-3-(5-(1-methylpiperidin-4-yl)-1,4,5,6-tetrahydropyrrolo[3,4-d]imidazol-2-yl)-1H-indazole]: the IC50 in experiment [1] worked out at 9.5 nM; in experiment [2], 3.5 nM; in experiment [3] it was 11.5 nM.

Regarding `CC(Oc1ccc2[nH]nc(-c3nc4c([nH]3)CN(CC3CCN(C)CC3)C4)c2c1)c1cc(F)cc(F)c1` (stereo not drawn) [Example 15], the IC50 in experiment [1] worked out at 0.65 nM; in experiment [2], 0.75 nM; in experiment [3] it was 0.86 nM.

`CC(Oc1ccc2[nH]nc(-c3nc4c([nH]3)CN(CC3CCNCC3)C4)c2c1)c1cc(F)cc(F)c1` (stereo not drawn) [Example 16, 5-(1-(3,5-Difluorophenyl)ethoxy)-3-(5-(piperidin-4-ylmethyl)-1,4,5,6-tetrahydropyrrolo[3,4-d]imidazol-2-yl)-1H-indazole]: the IC50 in experiment [1] came out at 1.9 nM; in experiment [2], 1.3 nM; in experiment [3], 1.8 nM.

Turning to `CCN1CCC(CN2Cc3nc(-c4n[nH]c5ccc(OC(C)c6cc(F)cc(F)c6)cc45)[nH]c3C2)CC1` (stereo not drawn) [Example 17], the IC50 in experiment [1] stood at 4.2 nM; in experiment [2] it was 0.66 nM; in experiment [3], 1.5 nM.

`CC(Oc1ccc2[nH]nc(-c3nc4c([nH]3)CN(CCN(C)C)C4)c2c1)c1cc(F)cc(F)c1` (stereo not drawn) [Example 18, 2-(2-(5-(1-(3,5-Difluorophenyl)ethoxy)-1H-indazol-3-yl)-4,6-dihydropyrrolo[3,4-d]imidazol-5(1H)-yl)-N,N-dimethyl ethan-1-amine]: the half-maximal inhibitory concentration (IC50) in experiment [1] stood at 1.1 nM; in experiment [2], 0.8 nM; in experiment [3], 1.5 nM.

For the compound `CC(=O)N1CCC(CN2Cc3nc(-c4n[nH]c5ccc(OC(C)c6cc(F)cc(F)c6)cc45)[nH]c3C2)CC1` (stereo not drawn) [Example 19, 1-(4-((2-(5-(1-(3,5-Difluorophenyl)ethoxy)-1H-indazol-3-yl)-4,6-dihydropyrrolo[3,4-d]imidazol-5(1H)-yl)methyl)piperidin-1-yl)ethan-1-one], the figures for the IC50 in experiment [1], in experiment [2] and in experiment [3] were 4.8 nM, 1.2 nM and 4.1 nM, respectively.

As for `CC(Oc1ccc2[nH]nc(-c3nc4c([nH]3)CN(CC3CCN(C)C3)C4)c2c1)c1cc(F)cc(F)c1` (stereo not drawn) [Example 20], the values for the half-inhibitory concentration (IC50) in experiment [1], in experiment [2] and in experiment [3] were 4 nM, 1.5 nM and 2.9 nM, respectively.

As for `CC(Oc1ccc2[nH]nc(-c3nc4c([nH]3)CN(CCC3CCN(C)CC3)C4)c2c1)c1cc(F)cc(F)c1` (stereo not drawn) [Example 21, 5-(1-(3,5-Difluorophenyl)ethoxy)-3-(5-(2-(1-methylpiperidin-4-yl)ethyl)-1,4,5,6-tetrahydropyrrolo[3,4-d]imidazol-2-yl)-1H-indazole], the IC50 in experiment [1] was 6.8 nM; in experiment [2], 1.8 nM; in experiment [3], 2.5 nM.

`CC(Oc1ccc2[nH]nc(-c3nc4c([nH]3)CN(CC3CCN(C(C)C)CC3)C4)c2c1)c1cc(F)cc(F)c1` (stereo not drawn) [Example 22]: the IC50 was 0.82 nM in experiment [1], 0.47 nM in experiment [2] and 0.51 nM in experiment [3].

As for `CC(Oc1ccc2[nH]nc(-c3nc4c([nH]3)CN(C(C)C3CCN(C)CC3)C4)c2c1)c1cc(F)cc(F)c1` (stereo not drawn) [Example 23, 5-(1-(3,5-Difluorophenyl)ethoxy)-3-(5-(1-(1-methylpiperidin-4-yl)ethyl)-1,4,5,6-tetrahydropyrrolo[3,4-d]imidazol-2-yl)-1H-indazole], the values for the IC50 in experiment [1], in experiment [2] and in experiment [3] were 1.5 nM, 0.59 nM and 1.1 nM, respectively.

Turning to `CC(Oc1ccc2[nH]nc(-c3nc4c([nH]3)CN(CC3CCCNC3)C4)c2c1)c1cc(F)cc(F)c1` (stereo not drawn) [Example 24, 5-(1-(3,5-Difluorophenyl)ethoxy)-3-(5-(piperidin-3-ylmethyl)-1,4,5,6-tetrahydropyrrolo[3,4-d]imidazol-2-yl)-1H-indazole], the results for the IC50 in experiment [1], in experiment [2] and in experiment [3] were 5.3 nM, 1.5 nM and 2.2 nM, respectively.
